# Data published in ChEMBL document CHEMBL3507680, “University of Dundee, Gates Library screen for HepG2 cell viability”.
# Test: Human HepG2 cell viability assay in 384 well format
# Format: toxicity, cell-based
# Design: dose 125 nL, time 70.5 hour; cytotoxicity at 70.5 h: concentration not given beside the values
# Conditions: HepG2 cells, read-out: Inhibition
row,SMILES,cytotoxicity at 70.5 h [%]
1,O=C1NC[C@H]2CN(Cc3ccccn3)CCN12,0.693
2,CN1C[C@H]2CN(C(=O)c3ccc4c(c3)OCO4)CCN2C1=O,-8.59
3,CS(=O)(=O)N1CCN2C(=O)N(C3CCOCC3)C[C@H]2C1,12.9
4,COc1ccc(-c2cn3c(n2)CO[C@@H](CNCc2ccccn2)C3)cc1,-0.00582
5,c1cncc(O[C@H]2COCCN(C3CCC3)C2)c1,1.49
6,CC(C)C(=O)N1CCOC[C@H](Oc2ccc(C(F)(F)F)cc2)C1,-1.93
7,COc1ccc(CN2CCOC[C@H](OCC(=O)N(C)C)C2)cc1,-1.39
8,COc1ccc(-c2noc([C@@H](C)NS(=O)(=O)CC(C)C)c2C(=O)O)cc1,-10.7
9,C[C@@H](NC(=O)c1cnccn1)c1c(-c2ccc(F)cc2)noc1C(=O)O,-1.48
10,CC(C)N1CCOC[C@H]1c1nc(C(C)(C)C)c[nH]1,0.329
11,CC(C)(C)c1coc([C@@H]2COCCN2Cc2ccccc2)n1,0.308
12,c1cc(-c2c[nH]c([C@@H]3COCCN3Cc3ncc[nH]3)n2)ccn1,1.76
13,c1cc(-c2c[nH]c([C@@H]3COCCN3Cc3csnn3)n2)ccn1,12.8
14,CC(C)NC(=O)N1CCCC2(CCCCN2)C1 (centres undefined),-7.7
15,CCC(CC)C(=O)N1CCOC2(CNC2)C1,6.77
16,CC(=O)N1CC2C[C@]2(NC(=O)c2ccco2)C1 (some centres undefined),18.4
17,CC(C)NC(=O)N1CCC2(CC1)[C@@H]1CN(C(=O)N(C)C)C[C@@H]1C(=O)N2C,-7.71
18,CC(=O)N1CCC2(CC1)[C@@H]1CN(C(=O)N(C)C)C[C@@H]1C(=O)N2C,-7.5
19,CC(C)C(=O)NC1COC2(CCN(C(=O)c3ccc[nH]3)CC2)C1 (centres undefined),-7.92
20,CC(=O)N1C[C@@H]2C(=O)N(C)C3(CCN(C(=O)C(C)C)CC3)[C@@H]2C1,-7.63
21,CCN1C(=O)[C@H]2CN(Cc3cccnc3)C[C@H]2C12CCN(C(C)=O)CC2,-10.7
22,CN(C)C(=O)CCC(=O)N1CCC2(CC1)COC2,12.8
23,CC(C)NC(=O)N1CCOC2(CNC2)C1,-4.25
24,O=C1CCC2(CCCN(C(=O)c3cnccn3)CC2)N1 (centres undefined),1.43
25,CC(=O)N1CCC2(CC1)NC(=O)[C@H]1CN(Cc3cccnc3)C[C@H]12,18.4
26,O=C1CO[C@@H]2CN(C(=O)CCc3ccccc3)C[C@H]2N1,-5.06

row,SMILES,cytotoxicity at 70.5 h [%]
1,CC(C)CC(=O)N1CCC2(CC1)[C@@H]1CN(C(=O)N(C)C)C[C@@H]1C(=O)N2C,-3.34
2,CC(=O)N1CCC2(CC1)[C@@H]1CN(Cc3cccnc3)C[C@@H]1C(=O)N2C,18.5
3,CC(=O)N1CCC2(CCN(CC(C)C)C2)C1 (centres undefined),-5.21
4,O=C(N1CCCC1)N1C[C@@H]2CCNC[C@@H]21,-12
5,CCN1C(=O)C(c2ccccc2)CC12CCN(S(C)(=O)=O)CC2 (centres undefined),-9.88
6,CN1CC[C@@H]2[C@@H]1CCN2Cc1ccc2c(c1)OCO2,-9.96
7,Cc1cccc(C(=O)N2C[C@@H]3[C@H](CC(=O)N4CCCC4)[C@@H]3C2)n1,-6.1
8,CC(=O)N1CCCC2(CCN(C(=O)c3nn(C)c4ccccc34)CC2)C1,29.2
9,Cc1ccc(CN2CC3(CCN(S(=O)(=O)c4ccccc4)C3)C2)o1,24.3
10,Cc1oncc1C(=O)N1CC2CC1(C(=O)N(C)C)C2,-6.15
11,COCCC(=O)N1CCCC2(CCN(c3ccccc3)C2=O)C1 (centres undefined),-11
12,CS(=O)(=O)N[C@@H]1COC[C@@H]2CN(Cc3ccoc3)C[C@@H]21,-11.6
13,CS(=O)(=O)N1CCc2sc(C(=O)NCc3ccccc3)cc21,-9.68
14,CCOCC1CN(C(=O)c2cccnc2)Cc2cnn(C)c21 (centres undefined),-9.4
15,CC(=O)N1CCC2(C1)c1ccccc1S(=O)(=O)N2CCC(C)C (centres undefined),-11.2
16,CC(C)Nc1nc(N2CCCC2)nc2c1CN(S(C)(=O)=O)CC2,-1.08
17,CN(C)CCNC(=O)c1cc2c(s1)CCN2S(C)(=O)=O,-9.71
18,CCOCC1CN(C(=O)C2CCOCC2)Cc2cnn(C)c21 (centres undefined),17.4
19,COC(=O)CCC(=O)N1CCC2(CN(Cc3ccccc3)C2)C1,21
20,O=C([C@@H]1C[C@@H]2CCN(C3CCOCC3)C[C@H]2O1)N1CCCC1,-4.52
21,Cc1ccc(NCc2cnc3n2CCN(c2ncccn2)CC3)nn1,-2.11
22,CN(C)C(=O)CN1C[C@@H]2OCCN(c3ncc(F)cn3)[C@@H]2C1,0.597
23,O=C([C@@H]1C[C@@H]2CCN(C3CCOCC3)C[C@@H]2O1)N1CCOCC1,-7.48
24,Cc1noc([C@@]23CCO[C@@H]2CCN(C(=O)CCC(C)C)C3)n1,1.83
25,Cc1noc([C@@]23CCO[C@@H]2CCN(C(=O)c2c(C)noc2C)C3)n1,-1.33
26,O=C(c1ccco1)N1CCN2C[C@H](Oc3cncnc3)C[C@H]2C1,12.4

row,SMILES,cytotoxicity at 70.5 h [%]
1,Cc1cc(C(=O)N[C@H](C)c2onc(-c3cccnc3)c2C(=O)O)c(C)o1,-2.03
2,CN(C)C(=O)N1Cc2ccccc2C2(CCNCC2)C1,28.5
3,CC(C)N1CCC2(CCNCC2)C1=O,-13
4,CN(C)C(=O)C1CCC2(CCNCC2)C1 (centres undefined),-2.3
5,CCN1CC2(CNCCN(C(=O)Nc3ccccc3)C2)CC1=O (centres undefined),2.39
6,CN(Cc1ccco1)C1CCC12CCN(C(=O)c1ccnnc1)CC2 (centres undefined),5.1
7,Cc1cc(CN2CC[C@H]3[C@H]2CCN3S(C)(=O)=O)oc1C,-8.76
8,CN(Cc1ccco1)C1CCC12CCN(C(=O)c1ccco1)CC2 (centres undefined),-0.239
9,CN1CC2(CNCCN(C(=O)Nc3ccccc3)C2)CC1=O (centres undefined),-7.57
10,O=C(C1CCCC1)N1CCCC2(CCN(c3cnccn3)CC2)C1,-8.23
11,CC(C)C(=O)N1CC2(CCN(CC(C)(C)C)CC2)C1,47.3
12,CN(C)CCN1C[C@@H]2CN(S(=O)(=O)c3cccs3)C[C@@H]2C1=O,-10.9
13,CCN1C[C@@H]2CN(Cc3cccs3)C[C@@H]2C1=O,-10.6
14,CCN1CC[C@@]2(C(=O)N(C)C)CCN(S(=O)(=O)c3ccccc3)CC[C@@H]12,-9.93
15,CCS(=O)(=O)N1CCC2(CCN(Cc3cccc(OC)c3)CC2)CC1,-2.06
16,CN1CCOC2(CCCN(C(=O)C3CCCCC3)C2)C1 (centres undefined),34.5
17,N#Cc1ccc(C(=O)N2CC[C@H]3[C@H]2CCN3CC2CCOCC2)cc1,12.2
18,N#Cc1cccc(C(=O)N2CC[C@H]3[C@H]2CCN3CC2CC2)c1,19.2
19,Cc1nn(C)c(C)c1S(=O)(=O)N1C[C@@H]2C[C@@H](C)O[C@@H]2C1,-9.76
20,O=C(c1cccc(F)c1)N1C[C@H]2CN(Cc3ccccn3)C[C@H]2C1,-16
21,COCCN1C[C@@H]2CN(Cc3ccc(F)cc3)C[C@@H]2C1=O,-9.05
22,COCCN1CC[C@H]2CN(Cc3ccc(C)s3)C[C@@H]2C1=O,-9.57
23,COc1ccc(CC(=O)N2C[C@H]3CN(Cc4ccccn4)C[C@H]3C2)cc1,-3.26
24,Cc1nn(C)c(C)c1S(=O)(=O)N1CC[C@H]2O[C@@H](C)C[C@H]2C1,-8.7
25,CCc1ccc(CN2C[C@@H](C)C3(CCN(CC(=O)N(C)C)C3=O)C2)o1 (some centres undefined),-6.86
26,O=C(c1c[nH]cn1)N1CCOCC2(C1)CN(c1ccccc1)C(=O)CO2 (centres undefined),-13.7

row,SMILES,cytotoxicity at 70.5 h [%]
1,O=C(N1CCCC1)N1CCOCC2(CCN(Cc3cccs3)C2)C1 (centres undefined),29.2
2,Cc1cccc(N2CCc3ncc(CNS(C)(=O)=O)n3CC2)n1,-11.6
3,CN(C)C(=O)[C@H]1C[C@@H]2CCN(C3CCOCC3)C[C@@H]2O1,-2.42
4,Cc1ccccc1C(=O)N1CCO[C@H]2[C@H](OCCN(C)C)CC[C@@H]21,-2.16
5,O=C([C@@H]1C[C@@H]2CCN(C3CCOCC3)C[C@@H]2O1)N1CCCC1,-5.63
6,Cc1cc(C(=O)N2CCO[C@H]3[C@H](OCCN(C)C)CC[C@@H]32)c(C)[nH]1,-9.02
7,CN(C)C(=O)COCC1CN(S(C)(=O)=O)Cc2ncn(C)c21 (centres undefined),-6.55
8,Fc1ccc(CN2CCCn3cnc(COCC4CC4)c3C2)cc1,2.87
9,COc1ccc(CN2CCCn3cnc(COCC4CC4)c3C2)cc1,1.46
10,COCCN1C[C@@H](C)[C@@]2(COCCN(C(=O)c3cccs3)C2)C1,1.58
11,CC(C)OCc1ncn2c1CN(Cc1cnn(C)c1)CCC2,0.691
12,c1cc2c(cc1CN1CC[C@H]3[C@H]1CCN3CC1CC1)OCO2,-1.51
13,CC(C)N1CCc2[nH]nc(C(=O)N3CCOCC3)c2C1,-12.9
14,O=C(NCC1CC1)c1n[nH]c2c1CNCC2,-10.7
15,Cc1ccc(CN2C[C@@H]3CCN(Cc4cccnc4)C(=O)[C@H]3C2)s1,14.5
16,CC1c2ncc(CNC(=O)C3CC3)n2CCN1Cc1cccnc1 (centres undefined),-5.38
17,Cc1ccc(CN2CCOCC3(CCN(Cc4cccs4)C3)C2)o1 (centres undefined),0.0959
18,COc1ccc(CN2CCc3nnc(COCCN(C)C)n3CC2)cc1,-17.3
19,Fc1cnc(N2C[C@@H]3COC[C@]3(COc3ccccn3)C2)nc1,19.5
20,CCc1ccc(CN2CCc3ncnc(-c4cccnc4)c3CC2)o1,-6.08
21,c1cncc(COCc2nnn3c2CN(Cc2ccsc2)CC3)c1,-2.9
22,c1cc(CN2CC[C@H]3CO[C@H](CN4CCOCC4)[C@H]3C2)cs1,-11.2
23,CC(C)N1CCc2[nH]nc(C(=O)N3CCN(C)CC3)c2C1,-1.5
24,Cc1cccnc1N1CC2(CCN(Cc3cccnc3)C2)C1,16.3
25,Cc1ccc(CN2CCn3c(CN4CCN(C)CC4)cnc3C2C)s1 (centres undefined),21.3
26,CC1c2ncc(CN3CCN(C)CC3)n2CCN1Cc1ccsc1 (centres undefined),-0.917
